Experimental data from patent US10221197B2, “Phosphatidylinositol 3-kinase inhibitors” (Gilead Sciences, Inc., priority 2014, dated 2019).

Experiments:
Type in all cases: biochemical
[1] = biological target: PI3Kγ (Homo sapiens (Human), UniProt P48736); experiment: TR-FRET enzymatic assay of PI3K isoforms (PI3Kγ); details: TR-FRET, 2×Km ATP, 2 μM PIP2, PI3Kγ at 2 nM, incubated for 30 minutes at 25° C.; read-out: γ IC50
Protocol: (§1) The compounds of formula (I) were characterized for their enzymatic activity against the PI3K isoforms. Certain compounds of the present application, including certain compounds of formula (II) and (III) were also characterized for their enzymatic activity against PI3K isoforms. The activities were measured using a time-resolved fluorescence resonance energy transfer (TR-FRET) assay.

[2] = biological target: PI3Kβ (Homo sapiens (Human), UniProt P42338); experiment: TR-FRET enzymatic assay of PI3K isoforms (PI3Kβ); details: TR-FRET, 2×Km ATP, 2 μM PIP2, incubated for 30 minutes at 25° C.; read-out: β IC50
Protocol: as §1

[3] = biological target: PI3Kδ (Homo sapiens (Human), UniProt O00329); experiment: TR-FRET enzymatic assay of PI3K isoforms (PI3Kδ); details: 2×Km ATP, 2 μM PIP2, incubated for 30 minutes at 25° C., read-out: δ IC50
Protocol: as §1

Chain of PI3Kβ (P42338 whole entry, canonical isoform): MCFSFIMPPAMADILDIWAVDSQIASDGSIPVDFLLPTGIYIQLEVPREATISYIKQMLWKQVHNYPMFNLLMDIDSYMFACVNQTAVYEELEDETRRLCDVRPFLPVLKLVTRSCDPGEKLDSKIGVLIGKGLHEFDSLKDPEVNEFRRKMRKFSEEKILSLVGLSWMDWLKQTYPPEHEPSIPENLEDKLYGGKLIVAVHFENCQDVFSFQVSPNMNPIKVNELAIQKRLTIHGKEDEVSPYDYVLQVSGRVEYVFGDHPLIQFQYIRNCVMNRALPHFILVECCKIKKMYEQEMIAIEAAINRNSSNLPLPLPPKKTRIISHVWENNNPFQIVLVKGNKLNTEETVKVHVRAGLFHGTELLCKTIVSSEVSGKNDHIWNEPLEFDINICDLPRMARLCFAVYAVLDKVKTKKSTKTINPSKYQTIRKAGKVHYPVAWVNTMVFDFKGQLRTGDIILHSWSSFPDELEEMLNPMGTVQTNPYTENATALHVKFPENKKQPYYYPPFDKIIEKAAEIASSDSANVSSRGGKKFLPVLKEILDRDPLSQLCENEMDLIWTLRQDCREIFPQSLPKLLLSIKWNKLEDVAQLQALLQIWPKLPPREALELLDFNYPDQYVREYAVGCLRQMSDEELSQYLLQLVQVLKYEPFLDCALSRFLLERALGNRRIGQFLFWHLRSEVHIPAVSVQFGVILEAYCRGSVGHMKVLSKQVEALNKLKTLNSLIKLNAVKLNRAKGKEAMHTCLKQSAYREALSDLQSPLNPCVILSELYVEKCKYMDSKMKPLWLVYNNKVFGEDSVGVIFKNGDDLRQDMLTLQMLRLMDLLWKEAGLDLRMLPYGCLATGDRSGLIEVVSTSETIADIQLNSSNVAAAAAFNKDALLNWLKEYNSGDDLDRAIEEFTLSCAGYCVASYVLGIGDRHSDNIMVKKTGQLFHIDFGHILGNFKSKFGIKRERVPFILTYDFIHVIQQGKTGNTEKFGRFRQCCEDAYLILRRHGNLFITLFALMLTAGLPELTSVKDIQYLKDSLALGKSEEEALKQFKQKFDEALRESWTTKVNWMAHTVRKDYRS
Chain of PI3Kβ (P27986 whole entry partner, canonical isoform): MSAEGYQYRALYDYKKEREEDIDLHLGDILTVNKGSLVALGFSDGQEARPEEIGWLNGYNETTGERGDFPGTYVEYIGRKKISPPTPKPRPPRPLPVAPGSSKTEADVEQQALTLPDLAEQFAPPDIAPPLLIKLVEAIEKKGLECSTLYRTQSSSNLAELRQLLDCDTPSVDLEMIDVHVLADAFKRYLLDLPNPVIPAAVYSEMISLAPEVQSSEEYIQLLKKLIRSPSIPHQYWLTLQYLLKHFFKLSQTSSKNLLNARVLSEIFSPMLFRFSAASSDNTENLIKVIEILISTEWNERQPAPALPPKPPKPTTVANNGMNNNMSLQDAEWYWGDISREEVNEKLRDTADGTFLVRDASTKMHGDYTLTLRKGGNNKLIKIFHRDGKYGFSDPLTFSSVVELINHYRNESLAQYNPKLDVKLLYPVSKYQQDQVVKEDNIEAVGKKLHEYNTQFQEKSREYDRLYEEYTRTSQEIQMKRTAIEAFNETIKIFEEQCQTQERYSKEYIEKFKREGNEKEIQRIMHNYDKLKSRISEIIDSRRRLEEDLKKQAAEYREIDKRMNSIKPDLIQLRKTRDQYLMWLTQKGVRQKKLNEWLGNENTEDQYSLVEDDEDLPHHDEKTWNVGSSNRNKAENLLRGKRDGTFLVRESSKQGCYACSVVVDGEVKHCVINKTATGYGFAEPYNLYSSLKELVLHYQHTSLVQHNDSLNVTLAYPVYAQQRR
Chain of PI3Kγ (P48736 whole entry, canonical isoform): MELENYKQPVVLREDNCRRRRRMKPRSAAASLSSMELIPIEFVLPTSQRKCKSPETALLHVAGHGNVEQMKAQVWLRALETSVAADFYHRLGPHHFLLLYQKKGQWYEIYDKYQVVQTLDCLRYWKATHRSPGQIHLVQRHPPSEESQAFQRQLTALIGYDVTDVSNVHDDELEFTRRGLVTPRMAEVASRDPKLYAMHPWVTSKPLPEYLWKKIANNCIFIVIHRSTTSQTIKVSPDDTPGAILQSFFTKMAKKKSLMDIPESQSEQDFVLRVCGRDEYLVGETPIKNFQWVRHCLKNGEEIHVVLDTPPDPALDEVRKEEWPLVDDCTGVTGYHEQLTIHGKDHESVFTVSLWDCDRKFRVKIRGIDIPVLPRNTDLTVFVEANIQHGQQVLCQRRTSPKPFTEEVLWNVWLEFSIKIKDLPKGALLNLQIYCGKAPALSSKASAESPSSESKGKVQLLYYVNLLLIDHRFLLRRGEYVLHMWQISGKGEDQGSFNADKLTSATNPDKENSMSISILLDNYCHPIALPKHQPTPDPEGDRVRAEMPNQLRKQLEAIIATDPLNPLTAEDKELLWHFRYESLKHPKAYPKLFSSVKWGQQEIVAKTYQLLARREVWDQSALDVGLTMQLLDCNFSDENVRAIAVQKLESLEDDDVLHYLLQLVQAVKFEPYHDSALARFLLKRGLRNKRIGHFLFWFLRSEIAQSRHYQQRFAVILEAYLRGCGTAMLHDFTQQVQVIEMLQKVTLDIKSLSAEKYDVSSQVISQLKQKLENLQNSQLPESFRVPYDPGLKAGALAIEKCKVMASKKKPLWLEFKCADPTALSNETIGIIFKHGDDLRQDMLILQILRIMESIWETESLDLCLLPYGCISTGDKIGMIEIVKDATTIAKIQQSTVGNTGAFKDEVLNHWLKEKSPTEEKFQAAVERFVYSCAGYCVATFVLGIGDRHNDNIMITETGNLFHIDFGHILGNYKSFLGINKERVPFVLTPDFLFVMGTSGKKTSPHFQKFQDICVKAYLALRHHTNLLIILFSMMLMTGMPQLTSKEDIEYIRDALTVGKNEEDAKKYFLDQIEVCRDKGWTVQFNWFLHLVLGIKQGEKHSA
Chain of PI3Kγ (Q8WYR1 whole entry partner, canonical isoform): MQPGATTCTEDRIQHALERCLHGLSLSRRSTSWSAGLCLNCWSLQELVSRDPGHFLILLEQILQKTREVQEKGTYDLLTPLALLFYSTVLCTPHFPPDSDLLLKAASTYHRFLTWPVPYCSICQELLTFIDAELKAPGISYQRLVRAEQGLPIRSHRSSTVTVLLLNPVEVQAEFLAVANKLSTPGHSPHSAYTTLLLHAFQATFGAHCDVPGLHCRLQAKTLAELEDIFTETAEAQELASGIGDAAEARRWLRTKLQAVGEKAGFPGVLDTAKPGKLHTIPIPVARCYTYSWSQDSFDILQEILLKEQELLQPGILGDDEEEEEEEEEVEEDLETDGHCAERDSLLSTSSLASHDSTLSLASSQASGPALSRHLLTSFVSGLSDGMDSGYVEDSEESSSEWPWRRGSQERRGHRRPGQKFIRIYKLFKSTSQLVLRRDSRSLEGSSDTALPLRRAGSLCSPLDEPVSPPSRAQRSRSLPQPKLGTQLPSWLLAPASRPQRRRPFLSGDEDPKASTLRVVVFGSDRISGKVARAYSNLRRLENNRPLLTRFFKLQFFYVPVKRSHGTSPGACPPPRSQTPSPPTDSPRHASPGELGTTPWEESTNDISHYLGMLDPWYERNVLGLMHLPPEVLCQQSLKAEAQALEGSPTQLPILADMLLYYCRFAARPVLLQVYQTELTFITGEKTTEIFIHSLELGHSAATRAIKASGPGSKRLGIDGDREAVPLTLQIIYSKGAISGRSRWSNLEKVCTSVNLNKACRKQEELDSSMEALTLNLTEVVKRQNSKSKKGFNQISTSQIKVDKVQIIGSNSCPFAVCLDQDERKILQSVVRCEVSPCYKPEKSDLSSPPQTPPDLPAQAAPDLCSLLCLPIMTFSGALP
Chain of PI3Kδ (O00329 whole entry, canonical isoform): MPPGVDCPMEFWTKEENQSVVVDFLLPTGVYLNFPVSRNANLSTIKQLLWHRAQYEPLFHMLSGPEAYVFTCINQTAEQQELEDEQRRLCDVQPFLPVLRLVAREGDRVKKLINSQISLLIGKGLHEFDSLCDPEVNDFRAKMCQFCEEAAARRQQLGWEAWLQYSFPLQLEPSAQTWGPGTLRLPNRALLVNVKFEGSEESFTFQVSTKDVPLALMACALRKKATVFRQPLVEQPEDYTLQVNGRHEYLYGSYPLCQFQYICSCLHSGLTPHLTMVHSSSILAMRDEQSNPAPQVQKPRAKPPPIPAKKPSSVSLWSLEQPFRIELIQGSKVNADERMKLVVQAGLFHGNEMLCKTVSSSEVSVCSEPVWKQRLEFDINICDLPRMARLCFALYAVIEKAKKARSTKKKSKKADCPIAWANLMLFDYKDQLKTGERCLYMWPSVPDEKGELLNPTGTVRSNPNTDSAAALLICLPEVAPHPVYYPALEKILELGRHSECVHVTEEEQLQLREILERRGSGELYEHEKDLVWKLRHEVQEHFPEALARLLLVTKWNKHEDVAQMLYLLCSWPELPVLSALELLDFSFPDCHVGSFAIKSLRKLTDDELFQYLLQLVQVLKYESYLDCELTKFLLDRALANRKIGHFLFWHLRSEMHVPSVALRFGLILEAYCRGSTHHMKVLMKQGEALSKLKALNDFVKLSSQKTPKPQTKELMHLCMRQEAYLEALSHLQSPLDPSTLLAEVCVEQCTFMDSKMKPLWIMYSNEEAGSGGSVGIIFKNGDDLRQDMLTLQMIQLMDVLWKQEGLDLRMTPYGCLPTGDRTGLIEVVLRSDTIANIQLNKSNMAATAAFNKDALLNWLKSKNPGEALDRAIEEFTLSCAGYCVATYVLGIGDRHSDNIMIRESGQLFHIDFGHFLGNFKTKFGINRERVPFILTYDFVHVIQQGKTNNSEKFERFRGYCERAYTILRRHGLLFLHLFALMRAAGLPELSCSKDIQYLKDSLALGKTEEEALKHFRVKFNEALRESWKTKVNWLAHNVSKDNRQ
Chain of PI3Kδ (P27986 whole entry partner, canonical isoform): as the sequence (P27986 whole entry partner, canonical isoform) above

| IC50 [1] [µM] | IC50 [2] [µM] | IC50 [3] [µM] | SMILES |
| --- | --- | --- | --- |
| 1.5 | 0.012 | 0.002 | CCNC(=O)Nc1cccc(-n2c([C@H](C)Oc3ncnc(N)c3C#N)nc3cccc(Cl)c3c2=O)c1 [Compound 70, (S)-1-(3-(2-(1-((6-amino-5-cyanopyrimidin-4-yl)oxy)ethyl)-5-chloro-4-oxoquinazolin-3(4H)-yl)phenyl)-3-ethylurea] |
| 1.3 | 0.004 | 0.005 | CCNC(=O)Nc1cccc(-n2c([C@H](C)Nc3ncnc4scnc34)nc3cccc(Cl)c3c2=O)c1 [Compound 72, (S)-1-(3-(5-chloro-4-oxo-2-(1-(thiazolo[5,4-d]pyrimidin-7-ylamino)ethyl)quinazolin-3(4H)-yl)phenyl)-3-ethylurea] |
| 5.6 | 0.038 | 0.017 | CCNC(=O)Nc1cccc(-n2c([C@@H]3C[C@H](F)CN3c3ncnc(N)c3C#N)nc3cccc(Cl)c3c2=O)c1 [Compound 73, 1-(3-(2-((2S,4S)-1-(6-amino-5-cyanopyrimidin-4-yl)-4-fluoropyrrolidin-2-yl)-5-chloro-4-oxoquinazolin-3(4H)-yl)phenyl)-3-ethylurea] |
| > 10 | 0.01 | 0.009 | C[C@H](Nc1ncnc(N)c1C#N)c1nc2cccc(Cl)c2c(=O)n1-c1cccc(NC(=O)NC2(C(F)(F)F)CC2)c1 [Compound 75, (S)-1-(3-(2-(1-((6-amino-5-cyanopyrimidin-4-yl)amino)ethyl)-5-chloro-4-oxoquinazolin-3(4H)-yl)phenyl)-3-(1-(trifluoromethyl)cyclopropyl)urea] |
| 4.4 | 0.005 | 0.007 | C[C@H](Nc1ncnc(N)c1C#N)c1nc2cccc(Cl)c2c(=O)n1-c1cccc(NC(=O)NCC(F)(F)F)c1 [Compound 76, (S)-1-(3-(2-(1-((6-amino-5-cyanopyrimidin-4-yl)amino)ethyl)-5-chloro-4-oxoquinazolin-3(4H)-yl)phenyl)-3-(2,2,2-trifluoroethyl)urea] |
| 9.5 | 0.42 | 0.027 | CC(C)NC(=O)Nc1cc(-n2c([C@H](C)Nc3ncnc(N)c3C#N)nc3cccc(Cl)c3c2=O)ccc1F [Compound 77, (S)-1-(5-(2-(1-((6-amino-5-cyanopyrimidin-4-yl)amino)ethyl)-5-chloro-4-oxoquinazolin-3(4H)-yl)-2-fluorophenyl)-3-isopropylurea] |
| 4.9 | 0.016 | 0.032 | CCNC(=O)Nc1cc(-n2c([C@H](C)Nc3ncnc(N)c3C#N)nc3cccc(Cl)c3c2=O)ccc1F [Compound 78, (S)-1-(5-(2-(1-((6-amino-5-cyanopyrimidin-4-yl)amino)ethyl)-5-chloro-4-oxoquinazolin-3(4H)-yl)-2-fluorophenyl)-3-ethylurea] |
| 0.68 | 0.071 | 0.002 | C[C@H](Nc1ncnc(N)c1C#N)c1nc2cccc(Cl)c2c(=O)n1-c1cccc(NC(=O)NS(=O)(=O)C2CCCC2)c1 [Compound 79, (S)—N-((3-(2-(1-((6-amino-5-cyanopyrimidin-4-yl)amino)ethyl)-5-chloro-4-oxoquinazolin-3(4H)-yl)phenyl)carbamoyl)cyclopentanesulfonamide] |
| 0.25 | 0.12 | 0.0009 | C[C@H](Nc1ncnc2scnc12)c1nc2cccc(Cl)c2c(=O)n1-c1cccc(NC(=O)NS(=O)(=O)C2CCCC2)c1 [Compound 80, (S)—N-((3-(5-chloro-4-oxo-2-(1-(thiazolo[5,4-d]pyrimidin-7-ylamino)ethyl)quinazolin-3(4H)-yl)phenyl)carbamoyl)cyclopentanesulfonamide] |
| 2.8 | 0.35 | 0.002 | C[C@H](Nc1ncnc(N)c1C#N)c1nc2cccc(Cl)c2c(=O)n1-c1cccc(NC(=O)NS(=O)(=O)C2CC2)c1 [Compound 81, (S)—N-((3-(2-(1-((6-amino-5-cyanopyrimidin-4-yl)amino)ethyl)-5-chloro-4-oxoquinazolin-3(4H)-yl)phenyl)carbamoyl)cyclopropanesulfonamide] |
| 8.6 | 0.029 | 0.016 | N#Cc1c(N)ncnc1N1CCC[C@H]1c1nc2cccc(Cl)c2c(=O)n1-c1cccc(NC(=O)NCC2OCCO2)c1 [Compound 82, (S)-1-((1,3-dioxolan-2-yl)methyl)-3-(3-(2-(1-(6-amino-5-cyanopyrimidin-4-yl)pyrrolidin-2-yl)-5-chloro-4-oxoquinazolin-3(4H)-yl)phenyl)urea] |
| 3.3 | 0.013 | 0.009 | CCNC(=O)Nc1cccc(-n2c([C@@H]3CCCN3c3ncnc(N)c3C#N)nc3cccc(Cl)c3c2=O)c1 [Compound 83, (S)-1-(3-(2-(1-(6-amino-5-cyanopyrimidin-4-yl)pyrrolidin-2-yl)-5-chloro-4-oxoquinazolin-3(4H)-yl)phenyl)-3-ethylurea] |
| 4.3 | 0.022 | 0.019 | C[C@H](Nc1ncnc2[nH]cnc12)c1nc2cccc(Cl)c2c(=O)n1-c1cccc(NC(N)=O)c1 [Compound 86, (S)-1-(3-(2-(1-((9H-purin-6-yl)amino)ethyl)-5-chloro-4-oxoquinazolin-3(4H)-yl)phenyl)urea] |
| 4.5 | 0.021 | 0.033 | CNC(=O)Nc1cccc(-n2c([C@H](C)Nc3ncnc4[nH]cnc34)nc3cccc(Cl)c3c2=O)c1 [Compound 87, (S)-1-(3-(2-(1-((9H-purin-6-yl)amino)ethyl)-5-chloro-4-oxoquinazolin-3(4H)-yl)phenyl)-3-methylurea] |
| 2.7 | 0.004 | 0.002 | C[C@H](Nc1ncnc(N)c1C#N)c1nc2cccc(Cl)c2c(=O)n1-c1cccc(NC(N)=O)c1 [Compound 88, (S)-1-(3-(2-(1-((6-amino-5-cyanopyrimidin-4-yl)amino)ethyl)-5-chloro-4-oxoquinazolin-3(4H)-yl)phenyl)urea] |
| 4.3 | 0.006 | 0.006 | CNC(=O)Nc1cccc(-n2c([C@H](C)Nc3ncnc(N)c3C#N)nc3cccc(Cl)c3c2=O)c1 [Compound 89, (S)-1-(3-(2-(1-((6-amino-5-cyanopyrimidin-4-yl)amino)ethyl)-5-chloro-4-oxoquinazolin-3(4H)-yl)phenyl)-3-methylurea] |
| 1.4 | 0.032 | 0.019 | CCNC(=O)Nc1cccc(-n2c([C@H](C)Nc3ncnc4[nH]cnc34)nc3cccc(Cl)c3c2=O)c1 [Compound 91, (S)-1-(3-(2-(1-((9H-purin-6-yl)amino)ethyl)-5-chloro-4-oxoquinazolin-3(4H)-yl)phenyl)-3-ethylurea] |
| 1.6 | 0.016 | 0.001 | CCNC(=O)Nc1cccc(-n2c([C@H](C)Nc3ncnc(N)c3C#Cc3ccccn3)nc3cccc(Cl)c3c2=O)c1 [Compound 92] |
| 3.7 | 0.07 | 0.11 | CCNC(=O)Nc1cccc(-n2c([C@H](C)Nc3nc(C)nc(N)n3)nc3cccc(Cl)c3c2=O)c1 [Compound 93, (S)-1-(3-(2-(1-((4-amino-6-methyl-1,3,5-triazin-2-yl)amino)ethyl)-5-chloro-4-oxoquinazolin-3(4H)-yl)phenyl)-3-ethylurea] |
| 2.6 | 0.23 | 0.005 | C[C@H](Nc1ncnc(N)c1C#N)c1nc2cccc(Cl)c2c(=O)n1-c1cccc(NC(=O)Nc2ccccc2C(=O)O)c1 [Compound 96, (S)-2-(3-(3-(2-(1-((6-amino-5-cyanopyrimidin-4-yl)amino)ethyl)-5-chloro-4-oxoquinazolin-3(4H)-yl)phenyl)ureido)benzoic acid] |
| 6 | 0.12 | 0.005 | C[C@H](Nc1ncnc(N)c1C#N)c1nc2cccc(Cl)c2c(=O)n1-c1cccc(NC(=O)Nc2ccccc2S(=O)(=O)O)c1 [Compound 97, (S)-2-(3-(3-(2-(1-((6-amino-5-cyanopyrimidin-4-yl)amino)ethyl)-5-chloro-4-oxoquinazolin-3(4H)-yl)phenyl)ureido)benzenesulfonic acid] |
| 3.3 | 0.058 | 0.029 | C[C@H](Nc1ncnc(N)c1C#N)c1nc2cccc(Cl)c2c(=O)n1-c1cccc(NC(=O)Nc2ccccc2OCC(=O)O)c1 [Compound 98, (S)-2-(2-(3-(3-(2-(1-((6-amino-5-cyanopyrimidin-4-yl)amino)ethyl)-5-chloro-4-oxoquinazolin-3(4H)-yl)phenyl)ureido)phenoxy)acetic acid] |
| 1.6 | 0.008 | 0.019 | C[C@H](Nc1ncnc(N)c1C#N)c1nc2cccc(Cl)c2c(=O)n1-c1cccc(NC(=O)Nc2ccc(Cl)c(C(F)(F)F)c2)c1 [Compound 99, (S)-1-(3-(2-(1-((6-amino-5-cyanopyrimidin-4-yl)amino)ethyl)-5-chloro-4-oxoquinazolin-3(4H)-yl)phenyl)-3-(4-chloro-3-(trifluoromethyl)phenyl)urea] |
| 1.4 | 0.001 | 0.003 | C[C@H](Nc1ncnc(N)c1C#N)c1nc2cccc(Cl)c2c(=O)n1-c1cccc(NC(=O)Nc2ccccc2Cl)c1 [Compound 100, (S)-1-(3-(2-(1-((6-amino-5-cyanopyrimidin-4-yl)amino)ethyl)-5-chloro-4-oxoquinazolin-3(4H)-yl)phenyl)-3-(2-chlorophenyl)urea] |
| 2.5 | 0.005 | 0.013 | C[C@H](Nc1ncnc(N)c1C#N)c1nc2cccc(Cl)c2c(=O)n1-c1cccc(NC(=O)Nc2ccccc2C(F)(F)F)c1 [Compound 101, (S)-1-(3-(2-(1-((6-amino-5-cyanopyrimidin-4-yl)amino)ethyl)-5-chloro-4-oxoquinazolin-3(4H)-yl)phenyl)-3-(2-(trifluoromethyl)phenyl)urea] |
